Reference: patent US20200291355A1, “ENGINEERED ERYTHROID CELLS INCLUDING LOADABLE ANTIGEN-PRESENTING POLYPEPTIDES AND METHODS OF USE” (Rubius Therapeutics, Inc., priority 2019, published 2020)

System: wt HLA-A2 or ds HLA-A2 antigen-presenting polypeptide (HLA*02:01)
Experiment: Binding kinetics of TAMRA-labeled HPV E7 antigenic polypeptides onto engineered enucleated erythroid cells (flow cytometry)
Set-up: species or system human
Conditions: 10 ng/mL, about 90 minutes, 4° C., RT and 37° C.
Method: To examine the antigenic polypeptide loading kinetics of loadable antigen-presenting polypeptides, the following experiment was performed.

YMLDLQPKT [HPV E7-E18K]
Loading rate of fluorescent peptide compared with HPV E7-GGK (onto cells including ds HLA-A2): more rapidly | Loading rate of fluorescent peptide compared with HPV E7-GGK (onto cells including wt HLA-A2): more rapidly
